“And” between values parts separate entries of the source, which are not always exact repeats. Equal values may be shown once. “Also recorded” adds a separate entry of the source. Positions of bridges follow the written chain, without caps; N, C: chain ends. Residues, ends and D or L forms follow the SMILES beside them.
Tests used:
[1] = tested on: HT29 human colon cancer cells; format: cell-based; conditions: inhibits cell growth by 50% at 24 hours of exposure; MTT or cell Titer-Glo; read-out: IC50s, HT29
Source text: (FIG. 2A1-8, and FIG. 2B1-6).

[2] = tested on: BxPC-3 human pancreatic cancer cells; conditions: 24 h
Protocol: (§1) 10,000 HT29 or SW480 human colon cancer cells, BxPC-3 human pancreatic cancer cells, and MCF7 and MDA-MB-231 breast cancer cells were obtained from American Type Culture Collection (ATTC), Manassas, Va., and were seeded in separate 96-well plates. After treatment with various concentrations (6.25 μM, 12.5 μM, 25 μM, 50 μM, 100 μM, or 200 μM) of test peptide for 24 h, cells were stained with MTT (3-(4,5-Dimethyl-2-thiazolyl)-2,5-diphenyl-2H-tetrazolium bromide, from Sigma-Aldrich) following the instructions of the manufacturer. Before dissolving MTT in SDS, the HT29 and SW480 cells were photographed using a digital camera connected with a phase-contrast microscope. (FIG. 2A1-8, and FIG. 2B1-6). Cells that are alive convert MTT into formazan in their active mitochondria and appear dark purple; dead cells are not stained by MTT and appear colorless.
(§2) The IC50 is the concentration of the test agent that inhibits cell growth by 50% at 24 hours of exposure. IC50s were determined using the MTT assay or using the cell Titer-Glo method and following the instructions of the manufacturer ([…]). […] (Sun, Y., and Rigas, B., (2008), Cancer Res., 68(20): 8269-8277).

[3] = tested on: MCF7 breast cancer cells; conditions: 24 h
Protocol: as §1, §2

[4] = tested on: MDA-MB-231 breast cancer cells; conditions: 24 h
Protocol: as §1, §2

[5] = tested on: SW480 human colon cancer cell xenografts; test: In vivo xenograft assay of tumor size, SCID mice; conditions: 100 μg intraperitoneally once a day, 10 days, one mouse
Protocol: Immunodeficient SCID mice (from Jackson Lab) were transplanted subcutaneously to their flank with 1.5 million SW480 human colon cancer cells. After the tumor size reached 120-150 mm^3, one mouse was treated with 100 μg YJB01 peptide injected intraperitoneally once a day, and the other one was treated with DMSO as a vehicle control. The tumor size was measured every two days (see FIG. 3A and FIG. 3B). The tumor volume was calculated based on its length (L) and width (W) using the formula Tumor volume=LW(L+W/2)0.56. (Rigas, B., and Kozoni, V., (2008) International Journal of Oncology, 32: 97-100). On the 10th day of treatment, the tumor volume was determined, the SCID mice were sacrificed and the tumors were excised and their weight was recorded (FIG. 3B).

[6] = tested on: SW480 human colon cancer cells; test: Annexin V-FITC flow cytometry for apoptotic cells, SW480; format: cell-based; conditions: 24 hrs, 0 μM to 200 μM
Protocol: (§3) SW480 human colon cancer cells and MCF7 breast cancer cells were grown following the instructions of American Type Culture Collection (ATCC, Monassas, Va.). The cells were treated with the test peptides (YJB01, YJB05, or YJB06) for 24 hrs at concentrations ranging from 0 μM, to 200 μM. After treatment, cells were trypsinized and stained with Annexin V-FITC (100× dilution) for 15 minutes. Annexin V-FITC fluorescence intensities were analyzed by FACSCaliber (BD Bioscience) following standard protocols. Annexin V (+) cells are apoptotic cells.
(§4) When cells undergo apoptosis, the inner membrane phospholipid, phosphotidylserine (PS), flips to the outer membrane and can be recognized by the […]. The green FITC fluorescence can be determined by flow cytometry and thus Annexin V (+) cells are apoptotic cells.
as §3, with “In this study, SW480” for “SW480”, “human” for “human colon”, “treatment” for “treatment,”, “protocols.” for “protocols. Annexin V (+) cells are apoptotic cells.”

[7] = tested on: MCF-7 human breast cancer cells; test: Annexin V-FITC flow cytometry for apoptotic cells, MCF7; format: cell-based; conditions: 24 hrs, 0 μM to 200 μM
Protocol: as §3, §4
as §3, with “In this study, SW480” for “SW480”, “human” for “human colon”, “treatment” for “treatment,”, “protocols.” for “protocols. Annexin V (+) cells are apoptotic cells.”

[8] = tested on: peroxiredoxin 1; test: Oxidized peroxiredoxin 1 (Prx-O3) immunoblot in SW480 cells; format: cell-based, human; conditions: 1 h, YJB01 20 μM and 100 μM, YJB05 100 μM
Protocol: (§5) The oxidized peroxiredoxin 1 (sulphonic-peroxiredoxin, Prx-O3) was detected by using the specific anti-Prx-O3 antibody. Briefly, after SW480 cells were treated with either no peptide, with YBJ01 (at 20 μM and 100 μM), or with YJB05 (at 100 μM) for 1 h, total cell lysates were collected and separated on the SDS-PAGE gel. The gel was electroblotted onto a nitrocellulose membrane and probed with anti-Prx-O3, followed by HRP-conjugated secondary antibody. Bands corresponding to sulphonic-peroxiredoxin were visualized by ECL
as §5, with “anti-Prx-O3 antibody” for “anti-Prx-O3 antibody.”, “with YBJ05” for “with YJB05”

[9] = tested on: SW480 human colon cancer xenografts; test: SW480 human colon cancer xenografts in nude mice, tumor volume; format: in vivo; conditions: for reduction in tumor volume: vs vehicle
Protocol: (§6) Xenografts were generated as described in FIG. 3A-B and Example 3 except where noted. Each animal had two xenografts, one on its right flank and one on the left. In these studies, the effect of two doses of YJB01, 100 μg and 500 μg per animal were evaluated. The doses were administrated intraperitoneally once a day dissolved in phosphate buffered saline (PBS). Control animals were injected with PBS. Tumor volume was determined as described in Example 3. Tumor volume is expressed as mean±SEM.
as §6, with “the” for “FIG. 3A-B and”
Xenografts were generated as described in the Example 3 except that 8 Balb/c nude mice in each group were used in this experiment. Nude mice bearing SW480 xenografts were treated with 500 μg/day of YJB02 for 19 days. The doses were administrated intraperitoneally once a day dissolved in phosphate buffered saline (PBS). Control animals were treated with PBS.
Tumor volume was determined as described in Example 3. Tumor volume was monitored and graphed as set forth in FIG. 9A, and is expressed as mean±SEM.

[10] = 500 μg intraperitoneally once a day for 10 days

CC[C@H](C)[C@H](NC(=O)[C@H](CCCCN)NC(=O)[C@@H](NC(=O)[C@H](CCC(N)=O)NC(=O)[C@H](CCCNC(=N)N)NC(=O)[C@@H]1CCCN1C(=O)[C@H](CCCCN)NC(=O)[C@@H]1CSSC[C@H](NC(=O)[C@H](Cc2c[nH]c3ccccc23)NC(=O)[C@@H](NC(=O)[C@H](C)N)[C@@H](C)O)C(=O)NCC(=O)N2CCC[C@H]2C(=O)N1)[C@@H](C)CC)C(=O)N[C@@H](Cc1c[nH]c2ccccc12)C(=O)N[C@@H](Cc1ccccc1)C(=O)N[C@@H](CCC(N)=O)C(=O)N[C@@H](CC(N)=O)C(=O)N[C@@H](CCCNC(=N)N)C(=O)N[C@@H](CCCNC(=N)N)C(=O)N[C@@H](CCSC)C(=O)N[C@@H](CCCCN)C(=O)N[C@@H](Cc1c[nH]c2ccccc12)C(=O)N[C@@H](CCCCN)C(=O)N[C@@H](CCCCN)C(=O)O [YJB01] (H-ATWCGPCKPRQIKIWFQNRRMKWKK-OH; disulfide 4-7; N-terminus and C-terminus assumed)
IC50 [1]: 89 µM | IC50 [2]: 109 µM | IC50 [3]: 68.9 µM | IC50 [4]: 88 µM | tumor growth at day 10 comparing with day 1 [5]: −0.04% and −4% | apoptosis, Annexin V (+) cells, SW480 [6]: cell killing effect | apoptosis, Annexin V (+) cells, MCF7 [7]: cell killing effect | induction of the oxidized form of peroxiredoxin 1 [8]: induced the oxidized form of peroxiredoxin; also recorded: capable of inducing oxidation | reduction in tumor volume ([9]; 100 μg intraperitoneally once a day for 21 days): 32% | tumor volume ([9]; 100 μg intraperitoneally once a day for 21 days, vehicle 776 mm^3): 527 mm^3 | tumor volume compared to its baseline [9, 10]: caused tumor regression | reduction in tumor volume [9, 10]: 60% | tumor volume ([9]; 500 μg intraperitoneally once a day for 10 days, vehicle 257 mm^3): 102 mm^3

From US8754047B2, “Peptide compositions and methods of use” (The Research Foundation for the State University of New York, priority 2008, dated 2014)
